This data set can be described thus: Study A: blood-brain barrier penetration, MetaQuant microdialysis of left and right striatum after oral administration. Type of data set: in vivo, mouse (C57Bl/6). Particulars: for average peak levels in left and right striatal dialysate: freely-moving adult male C57Bl/6 mice, corrected for dilution, not for recovery; for time of average peak levels in striatal dialysate after compound administration: mice, left and right striatum. The procedure: The present study was designed to determine the free concentration of the compound of formula (I) in the left and right striatum of freely-moving adult male mice after oral administration.
Adult male C57Bl/6 mice (22-28 g; Envigo, the Netherlands) were used for the experiments. Following arrival, animals were housed in groups of 5 in polypropylene cages (40×50×20 cm) with wire mesh top in a temperature (22±2° C.) and humidity (55±15%) controlled environment on a 12 hour light cycle (07.00-19.00). Following surgery, animals were housed individually (cages 30×30×40 cm). Standard diet (SDS Diets, RM1 PL) and domestic quality mains water were available ad libitum.
Mice were anesthetized using isoflurane (2% and 500 mL/min O2). Before surgery, Finadyne (1 mg/kg, s.c.) was administered for analgesia during surgery and the post-surgical recovery period. A mixture of bupivacaine and epinephrine was used for local analgesia of the incision site.
The animals were placed in a stereotaxic frame (Kopf instruments, USA). MetaQuant microdialysis probes with a 3 mm exposed polyacrylonitrile membrane (MQ-PAN 3/3) were implanted bilaterally into the left and right striatum (coordinates for the tip of the probe: AP=+0.8 mm (to bregma), ML=+/−1.7 mm (to midline), DV=−4.0 mm (to dura) with an angle of 0° and the incisor bar set at 0.0 mm. All coordinates were based on “The mouse brain in stereotaxic coordinates” by Paxinos and Franklin (2008). The probes were attached to the skull with a stainless-steel screw and dental cement.
The monosodium salt of the compound of formula (I) was formulated in sterilized tap water at concentrations (with respect to the non-salt form) of 0.2 and 4 mg/mL for oral dosing at 5 mL/kg; 1 mg/kg and 20 mg/kg, respectively.
The MetaQuant microdialysis probes were connected with flexible PEEK tubing (Western Analytical Products Inc. USA; PK005-020) to a microperfusion pump (Harvard) and perfused with a slow flow of artificial CSF (perfusate), containing 147 mM NaCl, 3.0 mM KCl, 1.2 mM CaCl2, and 1.2 mM MgCl2, at a flow rate of 0.12 μL/min and a carrier flow of UP+0.02 M FA+0.04% ascorbic acid at 0.8 μL/min. After a minimum of two hours of prestabilisation, microdialysis samples were collected in 60 minute intervals. Following collection of two baseline samples, the compound of formula (I) (1 or 20 mg/kg in sterilised tap water) was administered orally at t=0 minutes. […]
Microdialysate samples from MetaQuant probes contained a nominal volume of 55.2 μL dialysate. Levels of the compound of formula (I) in MetaQuant microdialysate samples were quantified by LC-MS/MS. […]
Suitable in-run calibration curves were fitted using weighted (1/x) regression and the sample concentrations were determined using these calibration curves. […]

We go through one molecule from patent US20220409586A1, “TREATMENT AND PREVENTION OF NEUROINFLAMMATION OR AN INFLAMMATORY BRAIN DISORDER” (Inflazome Limited, priority 2019, published 2022).

For the molecule `CC(C)n1ccc(S(=O)(=O)NC(=O)Nc2c3c(cc4c2CCC4)CCC3)n1` [compound of formula (I)], the “average peak levels in left and right striatal dialysate” value is 12 to 13 nM (1 mg/kg oral, at 5 hours after administration) and 201 to 243 nM (20 mg/kg oral, at 6 hours after administration). In addition, the “time of average peak levels in striatal dialysate after compound administration” value stood at 5 h (1 mg/kg oral) and 6 h (20 mg/kg oral).
